Values joined by “and” are separate entries in the source; they are usually repeats but may differ in a detail not shown here. Equal entries are not always repeated.
Tested on: tobacco budworm (Heliothis virescens [Fabricius])
Test: surface-treated diet test against tobacco budworm
Assay type: in vivo
Details: second instar larvae, five-day exposure
Method: Candidate insecticides are evaluated for activity against the tobacco budworm (Heliothis virescens [Fabricius]) in a surface-treated diet test.
In this test one mL of molten (65–70° C.) wheat germ-based artificial diet is pipetted into each well of a four by six (24 well) multi-well plate (ID#430345-15.5 mm dia.×17.6 mm deep; Corning Costar Corp., One Alewife Center, Cambridge, Mass. 02140). The diet is allowed to cool to ambient temperature before treatment with candidate insecticide.
For a determination of insecticidal activity, solutions of the candidate insecticides are prepared for testing using a Packard 204DT Multiprobe® Robotic System (Packard Instrument Company, 800 Research Parkway, Meriden, Conn. 06450), in which the robot first dilutes a standard 50 millimolar DMSO solution of candidate insecticide with a 1:1 water/acetone solution (V/V) in a ratio of 1:7 stock solution to water/acetone. The robot subsequently pipettes 40 microliters of the so-prepared solution onto the surface of the diet in each of three wells in the 24 multi-well plate. The process is repeated with solutions of seven other candidate insecticides. Once treated, the contents of the multi-well plate are allowed to dry, leaving 0.25 millimoles of candidate insecticide on the surface of the diet, or a concentration of 0.25 millimolar. Appropriate untreated controls containing only DMSO on the diet surface are also included in this test.
For evaluations of the insecticidal activity of a candidate insecticide at varying rates of application, the test is established as described above using sub-multiples of the standard 50 millimolar DMSO solution of candidate insecticide. For example, the standard 50 millimolar solution is diluted by the robot with DMSO to give 5, 0.5, 0.05, 0.005, 0.0005 millimolar, or more dilute solutions of the candidate insecticide. In these evaluations there are six replicates of each rate of application placed on the surface of the diet in the 24 multi-well plate, for a total of four rates of application of candidate insecticide in each plate.
In each well of the test plate is placed one second instar tobacco budworm larvea, each weighing approximately five milligrams. After the larvae are placed in each well, the plate is sealed with clear polyfilm adhesive tape. The tape over each well is perforated to ensure an adequate air supply. The plates are then held in a growth chamber at 25° C. and 60% relative humidity for five days (light 14 hours/day).
After the five-day exposure period insecticidal activity for each rate of application of candidate insecticide is assessed as percent inhibition of insect weight relative to the weight of insects from untreated controls, and percent mortality when compared to the total number of insects infested.

[1] = rate of application 4.6 (negative log of the molar concentration of test compound in the diet)
[2] = rate of application 6.6 (negative log of the molar concentration of test compound in the diet)
[3] = rate of application 5.6 (negative log of the molar concentration of test compound in the diet)
[4] = rate of application 3.6 (negative log of the molar concentration of test compound in the diet)

Row | Molecule | Percent Growth Inhibition [2] | Percent Growth Inhibition [3] | further results
1 | CCN(CC)CCOc1ccc(COCc2ccc(Cl)c3ccccc23)cc1 [Compound 8, (2-(4-(((4-chloronaphthyl)methoxy)methyl)phenoxy)ethyl)diethylamine] |  |  | Percent Growth Inhibition [1]: 11%
2 | amino(2-(4-((5,6-dichloronaphthyloxy)methyl)phenoxy)ethyl)diethyl-1-one [Compound 183] | 28% and 18% |  | 
3 | CCN(CC)CCOc1ccc(CNc2ccc(Cl)c3ccccc23)cc1OC [Compound 263, (2-(4-(((4-chloronaphthyl)amino)methyl)-2-methoxyphenoxy)ethyl)diethylamine] |  | 26% | 
4 | CCN(CC)CCOc1ccc(COc2ccc(Cl)c3cc(Cl)ccc23)cc1 [Compound 216, (2-(4-((4,6-dichloronaphthyloxy)methyl)phenoxy)ethyl)diethylamine] | 1% |  | 
5 | CC1CCCC(C)N1CCOc1ccc(COc2ccc(Cl)c3ccccc23)cc1 (stereo not drawn) [Compound 106, 1-(2-(2,6-dimethylpiperidyl)ethoxy)-4-((4-chloronaphthyloxy)methyl)benzene] | 35% |  | 
6 | CCN(CC)CCOc1ccc(CNc2ccc(Cl)c3ccccc23)cc1 [Compound 84, (2-(4-(((4-chloronaphthyl)amino)methyl)phenoxy)ethyl)diethylamine] |  | 11% | 
7 | CCN1CCN(c2ccc(COc3cccc4c(Cl)c(Cl)ccc34)cc2)CC1 [Compound 355, 1,2-dichloro-5-{[4-(4-ethylpiperazinyl)phenyl]methoxy}naphthalene] | −2% | 96% | Percent Growth Inhibition [4]: 100%; Percent Mortality [4]: 100%; Percent Growth Inhibition [1]: 100%; Percent Mortality [1]: 100%; Percent Mortality [3]: 17%
8 | CCN(CC)CCOc1ccc(COc2cccc3c(Cl)c(Cl)ccc23)cc1 [Compound 223, (2-(4-((5,6-dichloronaphthyloxy)methyl)phenoxy)ethyl)diethylamine] | 63% |  | 
9 | CCN(CC)CCOc1ccc(COc2ccc(Cl)c(Cl)c2Cl)cc1 [Compound 308, diethyl(2-(4-((2,3,4-trichlorophenoxy)methyl)phenoxy)ethyl)amine] |  | 18% | 
